Laboratory results published in PubChem BioAssay (NCI).
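Interpolation was linear, between the two tested concentrations surrounding the appropriate level; five concentrations were tested over 48 hours in 96-well plates. GI50 marks 50% less growth. TGI denotes the concentration required for complete inhibition of growth.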

Key:
Experiment in all cases: NCI-60 cell line screen, 48 h
[1] = test system: EKVX NSCLC
[2] = test system: HOP-62 NSCLC
[3] = test system: RPMI-8226 leukemia
[4] = test system: 786-0 renal
[5] = test system: SK-MEL-5 melanoma
[6] = test system: M14 melanoma
[7] = test system: CAKI-1 renal
[8] = test system: SNB-19 CNS
[9] = test system: PC-3 prostate

## CCOP(=O)(CC(=O)C1=C(O)C(CCCCNC(=O)OC(C)(C)C)N(Cc2ccccc2)C1=O)OCC (stereo unspecified)
[1]
  TGI: > 100 µM
[2]
  TGI: > 100 µM
[3]
  TGI: > 100 µM
[4]
  TGI: > 100 µM
[5]
  TGI: > 100 µM
[6]
  TGI: > 100 µM
[7]
  TGI: > 100 µM

## COc1cc2c(cc1OC)[C@@H]([C@H](O)c1ccccc1)NCC2
[1]
  TGI: > 100 µM
[2]
  TGI: > 100 µM
[3]
  TGI: > 100 µM
[4]
  TGI: > 100 µM
[5]
  TGI: > 100 µM
[6]
  TGI: > 100 µM
[8]
  TGI: > 100 µM
[7]
  TGI: > 100 µM

## N=C(N)SCc1ccc([N+](=O)[O-])cc1[N+](=O)[O-]
[1]
  GI50: 11 µM
  TGI: 25.8 µM
[2]
  GI50: 33.9 µM
  TGI: 79.1 µM
[3]
  GI50: 5.26 µM
  TGI: 72.2 µM
[4]
  GI50: 11.8 µM
  TGI: 27.8 µM
[5]
  GI50: 6.38 µM
  TGI: 19.6 µM
[6]
  GI50: 12.8 µM
  TGI: 29.4 µM
[8]
  GI50: 26 µM
  TGI: 79 µM
[7]
  GI50: 4.86 µM
  TGI: 15.8 µM
[9]
  GI50: 13.4 µM
  TGI: 87.2 µM

## Clc1ccc(C2=NOC3C4CCC(C4)C23)cc1 (stereo unspecified)
[1]
  TGI: > 100 µM
[2]
  TGI: > 100 µM
[3]
  TGI: > 100 µM
[4]
  TGI: > 100 µM
[5]
  TGI: > 100 µM
[6]
  TGI: > 100 µM
[8]
  TGI: > 100 µM
[7]
  TGI: > 100 µM

## Cc1ccc(S(=O)(=O)SCc2ccccc2)cc1
[1]
  TGI: 97.2 µM
[2]
  TGI: > 79.3 µM
[3]
  TGI: 33.5 µM
[4]
  TGI: 31.4 µM
[5]
  TGI: 54.5 µM
[6]
  TGI: 39.7 µM
[8]
  TGI: > 91.7 µM
[7]
  TGI: > 75.2 µM

## CN1C(=O)C(=CN(C)c2ccccc2)C(=O)N(C)C1=O
[1]
  TGI: > 100 µM
[3]
  TGI: > 100 µM
[4]
  TGI: > 100 µM
[5]
  TGI: > 100 µM
[6]
  TGI: > 100 µM
[8]
  TGI: > 100 µM
[7]
  TGI: > 100 µM

## COc1ccc2c(c1)CCN1C3=C(CCC3)C(=O)C[C@@H]21
[1]
  TGI: > 100 µM
[2]
  TGI: > 100 µM
[3]
  TGI: > 100 µM
[4]
  TGI: > 100 µM
[5]
  TGI: > 100 µM
[6]
  TGI: > 100 µM
[8]
  TGI: > 100 µM
[7]
  TGI: > 100 µM

## O=C(Sc1sc(=S)sc1SC(=O)c1ccccc1)c1ccccc1
[1]
  TGI: > 100 µM
[2]
  TGI: 72.4 µM
[3]
  TGI: > 100 µM
[4]
  TGI: > 100 µM
[5]
  TGI: > 100 µM
[6]
  TGI: > 100 µM
[8]
  TGI: > 100 µM
[7]
  TGI: > 100 µM

## Cc1cc(NS(=O)(=O)c2ccc(Nc3c4ccccc4nc4c(C(=O)Nc5ccc(S(=O)(=O)N=C(N)N)cc5)ccc(Cl)c34)cc2)no1
[1]
  TGI: > 100 µM
[2]
  TGI: 77.9 µM
[3]
  TGI: > 100 µM
[4]
  TGI: > 100 µM
[5]
  TGI: > 100 µM
[6]
  TGI: > 100 µM
[8]
  TGI: > 100 µM
[7]
  TGI: > 100 µM

## CCCCN1CCN(c2ccc3nc(-c4ccc5nc(-c6ccc(OCC)c(OCC)c6)[nH]c5c4)[nH]c3c2)CC1
[3]
  GI50: 0.436 µM
  TGI: 2.06 µM
[4]
  GI50: 1.41 µM
  TGI: 2.84 µM
[5]
  GI50: 1.09 µM
  TGI: 3.16 µM
[6]
  GI50: 0.314 µM
  TGI: 1.55 µM
[8]
  GI50: 1.22 µM
  TGI: 2.61 µM
[7]
  GI50: 1.04 µM
  TGI: 2.52 µM
[9]
  GI50: 1.08 µM
  TGI: 2.44 µM

## Cc1cc(NS(=O)(=O)c2ccc(NC(=O)COC(=O)c3cccc4c(=O)c5ccccc5[nH]c34)cc2)no1
[1]
  TGI: > 100 µM
[2]
  TGI: > 100 µM
[3]
  TGI: > 100 µM
[4]
  TGI: > 100 µM
[5]
  TGI: > 100 µM
[6]
  TGI: > 100 µM
[8]
  TGI: > 100 µM
[7]
  TGI: > 100 µM

## Brc1ccc(C2SCc3nc4ccccc4n32)cc1 (stereo unspecified)
[1]
  TGI: 33.8 µM
[2]
  TGI: 22.4 µM
[3]
  TGI: 28.6 µM
[4]
  TGI: 26 µM
[5]
  TGI: 12.5 µM
[6]
  TGI: 25.5 µM
[8]
  TGI: 9.02 µM
[7]
  TGI: 43 µM

## FC(F)(F)c1[nH]ncc1-c1nc2ccc3[nH]ncc3c2c2c1CCCC2
[1]
  GI50: 1.99 µM
  TGI: 7.29 µM
[2]
  GI50: 1.17 µM
  TGI: 6.79 µM
[3]
  GI50: 1.42 µM
  TGI: 6.66 µM
[4]
  GI50: 1.55 µM
  TGI: 4.08 µM
[5]
  GI50: 1.55 µM
  TGI: 2.96 µM
[6]
  GI50: 1.09 µM
  TGI: 2.9 µM
[8]
  GI50: 2.64 µM
  TGI: 9.09 µM
[7]
  GI50: 1.06 µM
  TGI: 10.4 µM
[9]
  GI50: 2.08 µM
  TGI: 8.73 µM

## O=C1CCC2(c3ccccc3)Nc3ccc(Cl)cc3N12 (stereo unspecified)
[1]
  TGI: > 100 µM
[2]
  TGI: > 100 µM
[3]
  TGI: > 100 µM
[4]
  TGI: > 100 µM
[5]
  TGI: > 100 µM
[6]
  TGI: > 100 µM
[7]
  TGI: > 100 µM

## O=C(NC(=O)c1cc2cc(Br)cc(Br)c2oc1=O)Oc1ccccc1
[1]
  TGI: > 100 µM
[2]
  TGI: > 100 µM
[3]
  TGI: > 100 µM
[4]
  TGI: > 100 µM
[5]
  TGI: > 100 µM
[6]
  TGI: > 100 µM
[8]
  TGI: > 100 µM
[7]
  TGI: > 100 µM

## Cc1ccc2c(CC(=O)O)cc(=O)oc2c1
[1]
  TGI: > 100 µM
[2]
  TGI: > 100 µM
[3]
  TGI: > 100 µM
[4]
  TGI: > 100 µM
[5]
  TGI: > 100 µM
[6]
  TGI: > 100 µM
[8]
  TGI: > 100 µM
[7]
  TGI: > 100 µM

## CCN(CC)CCC(=O)/C=C/c1ccc(C)cc1
[1]
  TGI: 32.4 µM
[2]
  TGI: 71.1 µM
[3]
  TGI: > 100 µM
[4]
  TGI: 24.7 µM
[5]
  TGI: 30.2 µM
[6]
  TGI: 26.8 µM
[8]
  TGI: 37.5 µM
[7]
  TGI: 3.28 µM

## COc1cc2ccc(CC(N)=O)cc2cc1OC
[1]
  TGI: > 100 µM
[2]
  TGI: > 100 µM
[3]
  TGI: > 100 µM
[4]
  TGI: > 100 µM
[5]
  TGI: > 100 µM
[6]
  TGI: > 100 µM
[8]
  TGI: > 100 µM
